# Laboratory results taken from patent publication US8318184B2, “MGLU2 agonists” (Eli Lilly and Company, priority 2009, dated 2012).
# How the values were obtained:
# NIH-Swiss mice = assay: Forced Swim Test in mice; assay type: in vivo, mouse; settings: i.p.
# Experimental: (§1) In this assay, mechanisms with purported antidepressant-like activity decrease immobility in a brief inescapable forced swim episode.
# The forced-swim test is conducted with both mice (male, NIH-Swiss mice, 20-25 g, Harlan Sprague-Dawley, Indianapolis, Ind.) and rats (male, Sprague-Dawley rats, 250-350 g, Harlan Sprague-Dawley, Indianapolis, Ind.). Mice are placed in clear plastic cylinders (diameter 10 cm; height: 25 cm) filled to 6 cm with 22-25° C. water for six min. The duration of immobility is recorded during the last 4 min of a six-minute trial. Rats are treated similarly, albeit in clear plastic cylinders of larger dimensions (diameter: 18 cm; height: 40 cm) filled with water (22-25° C.) to a depth of 16 cm for 15 min. Additionally, mice receive a single forced swim exposure; rats receive two, 5-min sessions separated by 24 hours (data is recorded only on Day 2). […] Imipramine is used as a positive control for these studies. […] Compounds are in a clear solution. The amount of time spent immobile (defined as movements only necessary to keep the subject's head above water) is the dependent measure and recorded by an observer blinded to the drug treatment of the subjects. Data are analyzed by post-hoc Dunnett's test with alpha level set at 0.05. The mouse version of the forced swim test is most commonly used.
# Sprague-Dawley rats = assay: Forced Swim Test in rats; assay type: in vivo, rat
# Experimental: as §1
# The forced-swim test is conducted with both mice (male, NIH-Swiss mice, 20-25 g, Harlan Sprague-Dawley, Indianapolis, Ind.) and rats (male, Sprague-Dawley rats, 250-350 g, Harlan Sprague-Dawley, Indianapolis, Ind.). Mice are placed in clear plastic cylinders (diameter 10 cm; height: 25 cm) filled to 6 cm with 22-25° C. water for six min. The duration of immobility is recorded during the last 4 min of a six-minute trial. Rats are treated similarly, albeit in clear plastic cylinders of larger dimensions (diameter: 18 cm; height: 40 cm) filled with water (22-25° C.) to a depth of 16 cm for 15 min. Additionally, mice receive a single forced swim exposure; rats receive two, 5-min sessions separated by 24 hours (data is recorded only on Day 2). The compound of Example 1 is tested in mice using intraperitoneal dosing (1, 3, or 10 mg/kg), 60 min prior to testing. […] Example 2 is administered 5 min following the first forced swim exposure and 120 min prior to the test session on Day 2. Imipramine is used as a positive control for these studies. Compounds are formulated in a water vehicle, with minimal NaOH being added to Example 1 and Example 2. Compounds are in a clear solution. The amount of time spent immobile (defined as movements only necessary to keep the subject's head above water) is the dependent measure and recorded by an observer blinded to the drug treatment of the subjects. Data are analyzed by post-hoc Dunnett's test with alpha level set at 0.05. The mouse version of the forced swim test is most commonly used. An ED60 value (60% of the amount of immobility relative to vehicle controls) is calculated to estimate potency of the test compounds.
# [1] = mean and standard error of the mean
Structure (SMILES),"ED60 (NIH-Swiss mice; 60 min prior to testing, single study) [mg/kg]","antidepressant-like effects (NIH-Swiss mice; F4,39=9.9, p<0.0001)","maximal effect, % of vehicle immobility levels (NIH-Swiss mice; at the 10 mg/kg dose, single study) [%]","ED60, mean of four separate replications (NIH-Swiss mice; [1]) [mg/kg]","maximal effect, % of vehicle-treated immobility levels, four separate replications (NIH-Swiss mice; [1]) [%]","maximal effect, immobility as % of vehicle-treated rats (Sprague-Dawley rats; oral dosing) [%]","immobility time (Sprague-Dawley rats; oral, following dosing with 4.1 and 13.8 mg/kg, F(4,29)=14.72, p<0.0001)"
"N[C@@]1(C(=O)O)C[C@@H](Sc2nnc[nH]2)[C@H]2[C@H](C(=O)O)[C@H]21 [Example 1, (1R,2S,4R,5R,6R)-2-Amino-4-(4H-1,2,4-triazol-3-ylsulfanyl)bicyclo[3.1.0]hexane-2,6-dicarboxylic acid]",10.5,prominent antidepressant-like effects,61,6.1 ± 2.5,49.5±11.5,,
"C[C@H](N)C(=O)N[C@@]1(C(=O)O)C[C@@H](Sc2nnc[nH]2)[C@H]2[C@H](C(=O)O)[C@H]21.Cl [Example 2, (1R,2S,4R,5R,6R)-2-[[(2S)-2-Aminopropanoyl]amino]-4-(1H-1,2,4-triazol-3-ylsulfanyl)bicyclo[3.1.0]hexane-2,6-dicarboxylic acid hydrochloride]",,,,,,68,significantly decreased immobility time
